Our source for the Kd values is ChEMBL document CHEMBL3991601, “The target landscape of clinical kinase drugs” (Science, 2017).

One may read the Kd as the constant that tells how readily two partners part at equilibrium.

For test [1], the target named is ATP-dependent RNA helicase DDX3X (Homo sapiens, UniProt O00571).
In test [2] the target is T1, Serine/threonine-protein kinase D2 (Homo sapiens, UniProt Q9BZL6).
T1 sequence (Q9BZL6 whole entry): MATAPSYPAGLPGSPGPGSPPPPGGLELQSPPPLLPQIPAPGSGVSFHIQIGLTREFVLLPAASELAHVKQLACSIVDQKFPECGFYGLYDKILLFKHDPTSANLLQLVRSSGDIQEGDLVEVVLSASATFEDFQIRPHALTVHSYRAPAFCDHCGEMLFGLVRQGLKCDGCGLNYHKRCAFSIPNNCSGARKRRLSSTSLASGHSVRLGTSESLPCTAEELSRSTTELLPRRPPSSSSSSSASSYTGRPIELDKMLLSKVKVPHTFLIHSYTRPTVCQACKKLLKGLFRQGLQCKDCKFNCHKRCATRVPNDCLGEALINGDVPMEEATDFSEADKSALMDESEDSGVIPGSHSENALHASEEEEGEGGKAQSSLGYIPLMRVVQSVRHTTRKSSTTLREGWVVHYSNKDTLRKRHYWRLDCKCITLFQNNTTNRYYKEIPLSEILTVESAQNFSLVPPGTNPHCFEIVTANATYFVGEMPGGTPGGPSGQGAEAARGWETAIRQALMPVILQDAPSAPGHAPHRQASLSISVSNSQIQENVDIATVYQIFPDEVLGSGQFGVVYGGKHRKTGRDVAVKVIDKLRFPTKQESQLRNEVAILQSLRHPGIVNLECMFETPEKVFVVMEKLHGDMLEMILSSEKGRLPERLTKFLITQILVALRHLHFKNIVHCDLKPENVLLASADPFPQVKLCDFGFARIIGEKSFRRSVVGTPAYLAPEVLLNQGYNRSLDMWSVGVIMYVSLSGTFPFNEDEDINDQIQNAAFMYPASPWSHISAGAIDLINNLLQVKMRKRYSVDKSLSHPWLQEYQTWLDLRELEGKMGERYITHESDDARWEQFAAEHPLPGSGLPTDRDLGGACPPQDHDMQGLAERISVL

For test [3], the target named is GTP-binding nuclear protein Ran (Homo sapiens, UniProt P62826).
In test [4] the target is T2, Acyl-CoA dehydrogenase family member 11 (Homo sapiens, UniProt Q709F0).
T2 sequence (Q709F0 whole entry): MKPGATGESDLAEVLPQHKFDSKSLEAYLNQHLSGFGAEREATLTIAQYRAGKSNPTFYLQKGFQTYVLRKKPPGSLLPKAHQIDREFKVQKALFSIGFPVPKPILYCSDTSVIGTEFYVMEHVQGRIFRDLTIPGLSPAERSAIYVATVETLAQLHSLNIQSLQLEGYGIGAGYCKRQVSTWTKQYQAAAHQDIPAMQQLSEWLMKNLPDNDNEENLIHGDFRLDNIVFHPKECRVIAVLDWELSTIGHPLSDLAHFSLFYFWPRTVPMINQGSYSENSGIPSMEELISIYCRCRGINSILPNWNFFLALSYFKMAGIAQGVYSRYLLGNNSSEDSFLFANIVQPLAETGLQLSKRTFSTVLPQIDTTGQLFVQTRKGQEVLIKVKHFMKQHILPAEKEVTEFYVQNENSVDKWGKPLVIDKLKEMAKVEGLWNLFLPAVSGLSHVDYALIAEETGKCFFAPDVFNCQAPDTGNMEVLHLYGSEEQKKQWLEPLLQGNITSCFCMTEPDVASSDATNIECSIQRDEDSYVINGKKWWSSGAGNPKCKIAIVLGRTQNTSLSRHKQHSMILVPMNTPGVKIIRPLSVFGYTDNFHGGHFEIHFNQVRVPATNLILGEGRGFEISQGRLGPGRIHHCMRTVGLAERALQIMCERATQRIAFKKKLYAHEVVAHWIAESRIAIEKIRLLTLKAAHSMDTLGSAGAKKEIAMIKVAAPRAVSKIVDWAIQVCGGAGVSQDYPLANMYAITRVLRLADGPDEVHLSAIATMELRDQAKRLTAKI

Test [5] concerns the target T3, Mitogen-activated protein kinase kinase kinase 3 (Homo sapiens, UniProt Q99759).
T3 sequence (Q99759 whole entry): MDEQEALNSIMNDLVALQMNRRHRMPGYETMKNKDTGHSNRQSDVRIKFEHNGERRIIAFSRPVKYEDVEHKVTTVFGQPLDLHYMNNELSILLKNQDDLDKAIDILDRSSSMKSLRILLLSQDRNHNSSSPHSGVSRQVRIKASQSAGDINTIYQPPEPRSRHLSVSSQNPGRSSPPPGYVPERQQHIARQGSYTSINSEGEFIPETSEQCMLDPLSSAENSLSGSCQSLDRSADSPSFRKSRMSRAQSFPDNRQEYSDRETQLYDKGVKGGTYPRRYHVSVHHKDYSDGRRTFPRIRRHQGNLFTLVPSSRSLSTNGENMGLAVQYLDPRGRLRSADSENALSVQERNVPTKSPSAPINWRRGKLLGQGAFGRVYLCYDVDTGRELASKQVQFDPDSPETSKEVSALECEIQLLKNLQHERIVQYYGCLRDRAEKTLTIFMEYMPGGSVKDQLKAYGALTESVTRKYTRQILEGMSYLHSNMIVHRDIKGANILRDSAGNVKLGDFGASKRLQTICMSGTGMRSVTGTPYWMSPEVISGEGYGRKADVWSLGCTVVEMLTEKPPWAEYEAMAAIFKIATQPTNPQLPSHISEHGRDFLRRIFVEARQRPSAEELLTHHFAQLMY

Test [6] has as its target Membrane-associated progesterone receptor component 1 (Homo sapiens, UniProt O00264).

The source made the active and inactive calls.
Also: in the data inactive means no Kd found up to 30 µM.

Chain of ATP-dependent RNA helicase DDX3X (O00571 whole entry): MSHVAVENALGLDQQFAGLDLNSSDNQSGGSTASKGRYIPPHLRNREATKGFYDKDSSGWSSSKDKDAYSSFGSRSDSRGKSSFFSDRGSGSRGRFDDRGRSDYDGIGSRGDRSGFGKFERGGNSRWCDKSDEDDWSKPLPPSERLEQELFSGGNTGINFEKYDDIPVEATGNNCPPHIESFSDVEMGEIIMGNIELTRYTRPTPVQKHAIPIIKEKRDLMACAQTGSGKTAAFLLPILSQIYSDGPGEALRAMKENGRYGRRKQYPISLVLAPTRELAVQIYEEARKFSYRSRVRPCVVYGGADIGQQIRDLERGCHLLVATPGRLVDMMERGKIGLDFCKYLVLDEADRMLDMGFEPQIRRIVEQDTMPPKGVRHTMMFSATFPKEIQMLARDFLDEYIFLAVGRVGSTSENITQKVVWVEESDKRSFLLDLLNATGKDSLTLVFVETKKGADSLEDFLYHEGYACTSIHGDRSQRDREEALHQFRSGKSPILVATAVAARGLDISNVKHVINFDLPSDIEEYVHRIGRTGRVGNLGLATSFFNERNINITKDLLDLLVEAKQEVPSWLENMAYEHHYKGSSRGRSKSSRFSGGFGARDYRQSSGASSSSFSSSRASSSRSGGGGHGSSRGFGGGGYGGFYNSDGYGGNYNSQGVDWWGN
Chain of Membrane-associated progesterone receptor component 1 (O00264 whole entry): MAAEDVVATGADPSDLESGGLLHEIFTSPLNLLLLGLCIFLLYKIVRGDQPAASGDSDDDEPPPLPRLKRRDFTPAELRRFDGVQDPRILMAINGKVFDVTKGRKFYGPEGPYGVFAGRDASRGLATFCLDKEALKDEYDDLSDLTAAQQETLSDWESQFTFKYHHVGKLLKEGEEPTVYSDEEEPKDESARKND

Turning to `CC(=O)c1cnc2ccc(-c3cc(Cl)c(O)c(Cl)c3)nc2c1N[C@H]1CC[C@H](CN(C)C)CC1`, the Kd in test [1] is > 30 µM (inactive); in test [2] it was 0.069 µM (active); in test [3], > 30 µM (inactive).

`COc1cc(Nc2ncc3c(n2)-c2ccc(Cl)cc2C(c2c(F)cccc2OC)=NC3)ccc1C(=O)O` [ALISERTIB]: the Kd in test [4], in test [1], in test [5], in test [6] and in test [3] was > 30 µM (inactive) throughout.

For `O=C(Nc1c[nH]nc1-c1nc2cc(CN3CCOCC3)ccc2[nH]1)NC1CC1` [AT-9283], the Kd is > 30 µM (inactive) in test [4]; > 30 µM (inactive) in test [1]; 0.345 µM (active) in test [5]; > 30 µM (inactive) in test [6]; > 30 µM (inactive) in test [3].

With `CNC(=O)c1ccccc1Sc1ccc2c(/C=C/c3ccccn3)n[nH]c2c1` [AXITINIB], the Kd in test [4], in test [1] and in test [3] was > 30 µM (inactive) in each case.

For the compound `Cc1cc(Nc2ncc(Cl)c(Nc3ccccc3S(=O)(=O)C(C)C)n2)c(OC(C)C)cc1C1CCNCC1` [CERITINIB], the Kd in test [4], in test [1], in test [5], in test [2] and in test [3] was > 30 µM (inactive) throughout.

In the case of `COc1c(OCCCN2CCOCC2)ccc2c1N=C(NC(=O)c1cnc(N)nc1)N1CCN=C21` [COPANLISIB], the Kd in test [4], in test [1], in test [5], in test [2] and in test [3] was > 30 µM (inactive) each time.

For `Cn1cc(C2=C(c3cn(C4CCN(Cc5ccccn5)CC4)c4ccccc34)C(=O)NC2=O)c2ccccc21` [ENZASTAURIN], the Kd in test [1] and in test [3] was > 30 µM (inactive) in each case.

Turning to `C[C@@H](Oc1cc(-n2cnc3ccc(CN4CCN(C)CC4)cc32)sc1C(N)=O)c1ccccc1C(F)(F)F` [GSK-461364], the Kd in test [4], in test [1], in test [6] and in test [3] was > 30 µM (inactive) in each case.

For `CCn1cc(-c2ccnc3[nH]c(-c4cccc(CN(C)C)c4)cc23)c(-c2ccc(NC(=O)N(C)C)cc2)n1` [GSK-1070916], the Kd in test [4], in test [1], in test [5] and in test [3] was > 30 µM (inactive) throughout.

Take `COc1ccc(S(=O)(=O)N(C(C)=O)c2ccccc2/C=C/c2cc[n+]([O-])cc2)cc1` [HMN-214]: the Kd in test [4], in test [1], in test [5], in test [2] and in test [3] was > 30 µM (inactive) each time.

As for `O=C(Nc1cc(C(F)(F)F)cc(C(F)(F)F)c1)c1cc(Cl)ccc1O` [IMD-0354], the Kd in test [4], in test [1], in test [5], in test [6] and in test [3] was > 30 µM (inactive) in each case.

With `Cc1[nH]c(/C=C2\C(=O)Nc3ccccc32)c(C)c1CCC(=O)O` [ORANTINIB], the Kd in test [4], in test [1], in test [5], in test [6] and in test [3] was > 30 µM (inactive) in each case.

Consider `NC(=O)c1c(OCc2c(F)cc(Br)cc2F)nsc1NC(=O)NCCCCN1CCCC1` [OSI-632], for which the Kd in test [4], in test [1], in test [6] and in test [3] was > 30 µM (inactive) each time.

With `Cc1nc(Nc2n[nH]c3c2CN(C(=O)N[C@H](CN(C)C)c2ccccc2)C3(C)C)c2sccc2n1` [PF-03758309], the Kd in test [4], in test [1], in test [5], in test [6] and in test [3] was > 30 µM (inactive) each time.

For `CC(=O)NCC(=O)N1[C@@H]2CC[C@H]1c1ccc(Nc3ncc(C(F)(F)F)c(NC4CCC4)n3)cc12` [PF-03814735], the Kd in test [4] is > 30 µM (inactive); in test [1], > 30 µM (inactive); in test [5], 0.246 µM (active); in test [6] it was > 30 µM (inactive); in test [3] it was > 30 µM (inactive).

As for `CNC(=O)c1cc(Oc2ccc(NC(=O)Nc3cc(C(C)(C)C)nn3-c3ccc4ncccc4c3)c(F)c2)ccn1` [REBASTINIB], the Kd in test [4], in test [1], in test [5], in test [2] and in test [3] was > 30 µM (inactive) in each case.

On to `N#CC1(c2ccc(NC(=O)c3cccnc3NCc3ccncc3)cc2)CCCC1` [RIVOCERANIB], for which the Kd in test [4], in test [1], in test [5], in test [2] and in test [3] was > 30 µM (inactive) throughout.

As to `O=C(NOCCO)c1cc(CN2OCCCC2=O)c(F)c(F)c1Nc1ccc(I)cc1F` [RO-4987655], the Kd in test [4], in test [1], in test [6] and in test [3] was > 30 µM (inactive) each time.

Take `N#CC[C@H](C1CCCC1)n1cc(-c2ncnc3[nH]ccc23)cn1` [RUXOLITINIB]: the Kd in test [4], in test [1] and in test [3] was > 30 µM (inactive) each time.

`CN1CCN(CCOc2cc(OC3CCOCC3)c3c(Nc4c(Cl)ccc5c4OCO5)ncnc3c2)CC1` [SARACATINIB]: the Kd in test [4], in test [1], in test [5], in test [2] and in test [3] was > 30 µM (inactive) in each case.

With `Cn1ncc(Cl)c1-c1cc(C(=O)N[C@H](CN)Cc2ccc(F)c(F)c2)oc1Cl` [UPROSERTIB], the Kd in test [1], in test [5], in test [6] and in test [3] was > 30 µM (inactive) each time.
